For one data set, the system named is A2058. Kind of data set: EdU incorporation cell proliferation assay, 24 h. It counts as cell-based, human. As to conditions: for % EdU +ve ± SE (S-phase cells): 24 h treatment at EC50 concentration. How it is done:
For this purpose, ten cancer cell lines (i.e., MDA-MB 231, SK-BR-3, MCF-7, A2058, SK-MEL-28, AGS, HepG-2, PANC-1, H1299 and Hela) originating from breast, melanoma, stomach, hepatic, pancreatic, lung and cervical tumors were analyzed in parallel with control samples (i.e., the same cells treated only with 0.2% (v/v) DMSO). […] Subsequently, the treated cells were allowed to incorporate 5-ethynyl-2′-deoxyuridine (EdU) into replicating DNA according to the protocol described in detail in the Experimental Section. EdU, a thymidine analog, can be incorporated into DNA in vivo and detected later by using copper-catalyzed azide–alkyne cycloaddition (click reaction) without prior DNA denaturation. The pool of cells in the S phase can be then easily detected by fluorescence (FL) microscopy or by flow cytometry by analyzing the incorporation of EdU in replicating DNA of single cells. In this study, after EdU incorporation, the nuclei of the entire cell population were stained with Hoechst and imaged by confocal microscopy (Experimental Section). EdU-positive nuclei, marked by green FL, as well as the total number of nuclei, marked by blue FL, were enumerated by applying the Icy image analysis algorithm on the digital images acquired by confocal microscopy.
Human cancer cells were plated onto sterile glass coverslips (10-mm diameter, 5161063, ThermoFisher Scientific, Waltham, MA, USA) in 24-well tissue culture plates, at a density 5 times the density of cells seeded in 96-well plate and at a final medium volume of 500 μL. In order to obtain homogeneous plating, 250 μL of the medium was added directly to the wells already containing coverslips. Using a tip perpendicularly, coverslips were pressed in order to ensure their attachment to the bottom of the well. The cells were then seeded by adding 250 μL of single-cell suspension drop by drop following a cross path. Immediately after seeding, the plate was shaken back and forth at least ten times to achieve homogeneous plating. The cells were allowed to adhere overnight (~16 h) at 37 °C and 5% (v/v) CO2. The next day, a volume of 500 μL fresh medium was added to each well and the treatment with OOPs was initiated by adding directly to the wells 2 μL of OOPs from the 500× stock in DMSO and immediately mixed afterward by pipetting. […] Control cells were prepared under the same experimental conditions using DMSO instead of the OOPs’ solutions in DMSO at the same final concentration (0.2% (v/v) DMSO). […] Each condition was performed in duplicate. After treatment with the OOPs, live proliferating mammalian cells were labeled with 5-ethynyl-2’-deoxyuridine (EdU), a nucleoside analog of thymidine, using the Cell proliferation kit III (EdU-FM, PK-CA724-488FM, Promokine, Heidelberg, Germany). More specifically, a 20 μM EdU solution from a 10 mM stock in DMSO was prepared in a fresh culture medium. Culture supernatant was removed from treated cells to leave only 250 μL. An equal volume of 20 μM EdU solution was added and mixed with the medium to obtain a 10 μΜ EdU final concentration. The treated cells were incubated for the desired time of pulse length (2–4 h) under conditions optimal for each cell type depending on each cell line’s doubling time. Following incubation, cells were washed twice with PBS, then fixed with 4% (w/v) paraformaldehyde in PBS for 15 min at room temperature (RT), and subsequently washed twice with 3% (w/v) BSA for 5 min each time. Cells were permeabilized by incubation (20 min, RT, in the dark) with 0.5% (v/v) Triton-X 100 in PBS. Following permeabilization the cells were washed twice with 3% (w/v) BSA in PBS and incubated for 30 min with the reaction cocktail, according to the instructions of the Cell proliferation kit III (EdU-488; FM). After staining for replicating DNA, the cells were washed three times with 3% (w/v) BSA in PBS, and were then incubated (10 min, at RT) with Hoechst 33342 in PBS (1:10.000) to visualize all the nuclei. […]

For data set [1], the system named is MCF-7/TR (tamoxifen-resistant). On the set-up: method as in Mazzei et al. (2020) 27. As to conditions: ref Mazzei et al. (2020) 27; cited from earlier work.
A further data set deals with SK-BR-3 cells. Kind of data set: Deactivation in culture medium (direct addition vs pre-incubation), ATP assay 48 h. It counts as cell-based, human. As to conditions: 20 and 40 μM, 15 min pre-incubation in culture medium vs direct addition. How it is done:
The other OOPs tested were not affected similarly (Figure S3B). […] It was therefore decided for all the experiments presented in this manuscript and the assays performed to calculate the EC50 values to add all the OOPs tested directly to the culture medium.
Viable cell numbers were determined using the ATP-based luminescence assay after 48 h of treatment. The compound was added to the cells either directly or after incubation with the culture medium for 15 min. The results presented are from four independent experiments performed in triplicate. Bar graphs represent the mean cell count ± SE in each treatment group normalized to the control group (i.e., cells treated only with 0.2% (v/v) DMSO). * p < 0.05; ** p ≤ 0.01 (t-test) comparing the two different treatment methods.

Another data set relates to Caco-2 cells. Conditions: cited from earlier work.
Another data set relates to Hela cells. Conditions: cited from earlier work.

What is called EC50 is the midpoint of the concentration-response curve.

Consider `COC(=O)C1=COC(C)[C@@H](C=O)[C@@H]1CC(=O)OCCc1ccc(O)c(O)c1` (mixture of isomers) [3a,b, oleuropein aglycone], for which the “% Inhibition ± SE of cell proliferation” value with A2058 (24 h at EC50, normalized with the control) amounted to 15.0 ± 10.3%. Also, the “% EdU +ve ± SE (S-phase cells)” value with A2058 amounted to 23.7 ± 5.8%. The 50% effective concentration (EC50) in data set [1] is 70 µM.
As for `C/C=C(/C=O)[C@@H](CC=O)CC(=O)OCCc1ccc(O)cc1` [compound 1, oleocanthal], the “stability/deactivation in the cell culture medium” value in the data set with SK-BR-3 cells is “partially deactivated”. Besides, the EC50 with Caco-2 cells and in the data set with Hela cells was more than 150 µM throughout. Moreover, in the data set on A2058, the “% EdU +ve ± SE (S-phase cells)” value amounted to 25.5 ± 5.3%.

(Values after publication PMC9820430, “New Affordable Methods for Large-Scale Isolation of Major Olive Secoiridoids and Systematic Comparative Study of Their Antiproliferative/Cytotoxic Effect on Multiple Cancer Cell Lines of Different Cancer Origins” (International Journal of Molecular Sciences, 2022).)
